These results are taken from US20250346601A1, “HETEROCYCLIC COMPOUNDS FOR THE PREVENTION AND THERAPY OF CIRCADIAN RHYTHM DISORDERS” (UNIVERZITA PALACKEHO V OLOMOUCI, priority 2022, published 2025).

In experiment [1] the test system is NIH3T3 line transfected with the Per2-Luc reporter. The experiment can be described thus: Period of the circadian rhythm in NIH3T3 fibroblasts with Per2-Luc reporter (luminescence, cosinor analysis). Particulars: for Period length ± standard error of the mean (expressed relative to the control) at the indicated concentration: NIH3T3, DMSO control = 1.00. In kind it is cell-based, mouse. The method, then:
NIH3T3 mouse embryonic fibroblasts were grown in standard DMEM with 10% fetal bovine serum. NIH3T3 cells were transfected with 1 μg of Per2-Luc reporter using GeneJuice and selected under hygromycin. The cell line was clonally expanded and a single monoclonal cell line was used for further experiments. Cells were cultured in a 96-well plate in growth medium to 90+% confluence. Test compound or vehicle (DMSO) was applied to recording medium with 100 U/ml penicillin, 100 μg/ml streptomycin, 1x GlutaMAX, 10% fetal calf serum and 0.1 mM Luciferin-EF (Promega Madison, WI, USA). Luminescence was recorded every hour for the next 144 hours. Circadian rhythm analysis was performed using cosinor analysis. Period length was expressed relative to the period of cells affected only by DMSO vehicle (their period length is therefore 1.00).

Experiment [2] deals with U2OS line transduced with the Bmal 1-Luc reporter. In words: Period of the circadian rhythm in U2OS cells with Bmal1-Luc reporter (luminescence, cosinor analysis). The experiment is classed as cell-based, Human. Particulars: for Period length ± standard error of the mean (expressed relative to control) at the indicated concentration: U2OS, DMSO control = 1.00. The method, then:
Human osteosarcoma U2OS cells were grown in standard DMEM medium with 10% fetal bovine serum. U2OS cells were transduced with lentiviral particles containing a Bmall-Luc fusion reporter and selected under Blasticidin. The cell line was clonally expanded and a single monoclonal cell line was used for further experiments. Cells were cultured in a 384-well plate in growth medium to 90+% confluence. Test compound or vehicle (DMSO) was applied to recording medium with 100 U/ml penicillin, 100 ug/ml streptomycin, 1x GlutaMAX, 10% fetal bovine serum, and 0.1 mM Luciferin-EF. Luminescence was recorded every hour for the next 144 hours. Circadian rhythm analysis was performed using cosinor analysis.
The length of the period was expressed relative to the period of cells affected only by DMSO vehicle (their period is therefore 1.00). […] The overall effect on circadian oscillations unequivocally proves that the compounds of formula I can be also used to temporally modulate the concentration and activity of not only BMAL1, but also other components of the oscillator including the critical components PER2, CRY and CLOCK in time, as these are an essential part of the mechanism generating the rhythmic expression of the luminescent reporter used. The concentration and level of other proteins, whose rhythmic expression is controlled by an oscillator in the brain and peripheral tissues (so-called clock-controlled genes), are also necessarily affected. The influence of the compounds of formula I on the activity of oscillator components and subordinate genes also means influencing the physiological processes of the cell controlled by these genes and proteins. N^6-furfuryladenine was used as a reference compound. […] The ability to shift the phase of the circadian cycle can be seen in FIG. 2.

In the case of `Clc1nc(NCc2ccco2)c2ncn(C3CCOCC3)c2n1` [Compound 10], the “Period length ± standard error of the mean (expressed relative to the control) at the indicated concentration” value in experiment [1] (10 μM) is on record as 10 μM: 1.14 ± 0.01. For the same compound, the “Period length ± standard error of the mean (expressed relative to control) at the indicated concentration” value in experiment [2] (10 μM) is 10 μM: 1.09 ± 0.01.
As for `CNc1nc(NCc2ccco2)c2ncn(C3CCCCCO3)c2n1` (stereo not drawn) [Compound 60], the “Period length ± standard error of the mean (expressed relative to the control) at the indicated concentration” value in experiment [1] (50 μM) is reported as 50 μM: 1.42 ± 0.04. For the same compound, the “Period length ± standard error of the mean (expressed relative to control) at the indicated concentration” value in experiment [2] (5 μM) was determined as 1.04 ± 0; in experiment [2] (20 μM), 1.15 ± 0.01.
Regarding `CCCNc1nc(NCc2ccco2)c2ncn(C3CCCCO3)c2n1` (stereo not drawn) [Compound 35], the “Period length ± standard error of the mean (expressed relative to the control) at the indicated concentration” value in experiment [1] (50 μM) is reported as 50 μM: 1.38 ± 0.09. In addition, the “Period length ± standard error of the mean (expressed relative to control) at the indicated concentration” value in experiment [2] (10 μM) is given as 10 μM: 1.05 ± 0.01.
As for `CNc1nc(NCc2ccc(C)o2)c2ncn(C3CCCCO3)c2n1` (stereo not drawn) [Compound 50], in experiment [1] (50 μM), the “Period length ± standard error of the mean (expressed relative to the control) at the indicated concentration” value was 50 μM: 1.6 ± 0.02. In addition, the figures for the “Period length ± standard error of the mean (expressed relative to control) at the indicated concentration” value in experiment [2] (10 μM) and in experiment [2] (20 μM) were 1.11 ± 0.01 and 1.14 ± 0.02, respectively.
For the compound `CNc1nc(NCc2ccco2)c2ncn(C3CCCCO3)c2n1` (stereo not drawn) [Compound 33], in experiment [1] (50 μM), the “Period length ± standard error of the mean (expressed relative to the control) at the indicated concentration” value is listed as 50 μM: 1.18 ± 0.02. Further, in experiment [2] (5 μM), the “Period length ± standard error of the mean (expressed relative to control) at the indicated concentration” value is 5 μM: 1.04 ± 0.
`CN(C)c1nc(NCc2ccco2)c2ncn(C3CCCO3)c2n1` (stereo not drawn) [Compound 23]: the “Period length ± standard error of the mean (expressed relative to the control) at the indicated concentration” value came out at 1.07 ± 0.01 in experiment [1] (10 μM) and 1.36 ± 0.04 in experiment [1] (50 μM). Moreover, the “Period length ± standard error of the mean (expressed relative to control) at the indicated concentration” value in experiment [2] (10 μM) is recorded as 10 μM: 1.08 ± 0.01.
As to `CCOCn1cnc2c(NCc3ccco3)ncnc21` [9-(ethoxymethyl)-N-(furan-2-ylmethyl)-9H-purin-6-amine, reference compound], in experiment [1] (50 μM), the “Period length ± standard error of the mean (expressed relative to the control) at the indicated concentration” value was 50 μM: 1 ± 0.03. Also, the “Period length ± standard error of the mean (expressed relative to control) at the indicated concentration” value in experiment [2] (50 μM) is given as 50 μM: 1.01 ± 0.01.
Take `c1coc(CNc2ncnc3nc[nH]c23)c1` [N^6-furfuryladenine, reference compound]: the “Period length ± standard error of the mean (expressed relative to the control) at the indicated concentration” value in experiment [1] (50 μM) is recorded as 50 μM: 1.06 ± 0.02. For the same compound, the “Effect on the period of the circadian rhythm (in words)” value is on record as “much smaller effect” in experiment [1] (NIH3T3 Per2-Luc) and “minimal effect” in experiment [2] (U2OS Bmal1-Luc). In addition, the “Period length ± standard error of the mean (expressed relative to control) at the indicated concentration” value in experiment [2] (20 μM) is 20 μM: 1.02 ± 0.01.
Consider `c1coc(CNc2nc(N3CCOCC3)nc3c2ncn3C2CCCC2)c1` [Compound 20], for which the figures for the “Period length ± standard error of the mean (expressed relative to the control) at the indicated concentration” value in experiment [1] (0.83 μM) and in experiment [1] (50 μM) were 1.04 ± 0.01 and 1.55 ± 0.03, respectively. For the same compound, the “Period length ± standard error of the mean (expressed relative to control) at the indicated concentration” value in experiment [2] (1 μM) was 1.09 ± 0.01; in experiment [2] (4 μM), 1.67 ± 0.33.
Regarding `CCOCCn1cnc2c(NCc3ccco3)ncnc21` [9-(2-ethoxyethyl)-N-(furan-2-ylmethyl)-9H-purin-6-amine, reference compound], the “Period length ± standard error of the mean (expressed relative to the control) at the indicated concentration” value in experiment [1] (50 μM) is reported as 50 μM: 0.97 ± 0.03. Moreover, the “Period length ± standard error of the mean (expressed relative to control) at the indicated concentration” value in experiment [2] (50 μM) is reported as 50 μM: 0.99 ± 0.01.
Consider `CN(C)CCNc1nc(NCc2ccco2)c2ncn(C3CCCCO3)c2n1` (stereo not drawn) [Compound 44], for which, in experiment [1] (50 μM), the “Period length ± standard error of the mean (expressed relative to the control) at the indicated concentration” value was 50 μM: 1.72 ± 0.04. Further, the “Period length ± standard error of the mean (expressed relative to control) at the indicated concentration” value in experiment [2] (1 μM) was found to be 1.05 ± 0.01; in experiment [2] (5 μM), 1.28 ± 0.02.
